What was measured:
[1] = target: Hepatocyte growth factor receptor (Homo sapiens, UniProt P08581); assay: Inhibition of c-MET (unknown origin) using FAM-labeled peptide as substrate incubated for 10 mins followed by substrate addition by HTRF assay
A549 = assay: cells; conditions: Homo sapiens, A549, 72 h
Description: Antiproliferative activity against human A549 cells after 72 hrs by MTT assay

MCF7 = assay: cells; conditions: Homo sapiens, MCF7, 72 h
HepG2 [2] = assay: cells; conditions: Homo sapiens, HepG2, 72 h
[3] = target: Vascular endothelial growth factor receptor 3 (Homo sapiens, UniProt P35916); assay: Inhibition of FLT4 (unknown origin) using FAM-labeled peptide as substrate incubated for 10 mins followed by substrate addition by HTRF assay
[4] = target: T1, Receptor-type tyrosine-protein kinase FLT3 (Homo sapiens, UniProt P36888); assay: Inhibition of FLT3 (unknown origin) using FAM-labeled peptide as substrate incubated for 10 mins followed by substrate addition by HTRF assay
T1 sequence (P36888 whole entry): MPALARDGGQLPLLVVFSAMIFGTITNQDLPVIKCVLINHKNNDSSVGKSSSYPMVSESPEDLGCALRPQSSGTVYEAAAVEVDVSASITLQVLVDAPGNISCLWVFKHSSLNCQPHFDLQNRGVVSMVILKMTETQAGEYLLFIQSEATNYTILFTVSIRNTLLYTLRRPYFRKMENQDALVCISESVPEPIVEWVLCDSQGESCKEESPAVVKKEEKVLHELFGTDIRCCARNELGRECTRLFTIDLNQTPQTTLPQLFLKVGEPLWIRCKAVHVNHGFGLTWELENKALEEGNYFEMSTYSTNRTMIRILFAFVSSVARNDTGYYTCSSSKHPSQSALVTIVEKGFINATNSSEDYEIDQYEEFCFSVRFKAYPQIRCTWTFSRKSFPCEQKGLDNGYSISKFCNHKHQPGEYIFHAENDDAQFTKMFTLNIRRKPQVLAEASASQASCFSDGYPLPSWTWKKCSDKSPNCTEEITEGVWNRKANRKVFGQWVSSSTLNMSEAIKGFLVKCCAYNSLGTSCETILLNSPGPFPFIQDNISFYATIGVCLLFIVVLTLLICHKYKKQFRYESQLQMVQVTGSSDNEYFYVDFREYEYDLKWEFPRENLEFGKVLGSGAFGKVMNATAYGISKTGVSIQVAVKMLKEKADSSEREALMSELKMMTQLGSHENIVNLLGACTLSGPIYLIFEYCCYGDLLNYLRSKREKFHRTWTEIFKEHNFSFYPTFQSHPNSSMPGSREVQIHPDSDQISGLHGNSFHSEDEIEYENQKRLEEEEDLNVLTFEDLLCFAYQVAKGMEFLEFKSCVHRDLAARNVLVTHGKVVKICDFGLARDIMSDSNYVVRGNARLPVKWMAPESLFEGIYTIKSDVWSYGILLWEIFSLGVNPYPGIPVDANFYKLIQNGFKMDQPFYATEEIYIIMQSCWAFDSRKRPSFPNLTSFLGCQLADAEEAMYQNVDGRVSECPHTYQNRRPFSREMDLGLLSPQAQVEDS

[5] = target: Epidermal growth factor receptor (Homo sapiens, UniProt P00533); assay: Inhibition of EGFR (unknown origin) using FAM-labeled peptide as substrate incubated for 10 mins followed by substrate addition by HTRF assay
[6] = target: Platelet-derived growth factor receptor alpha (Homo sapiens, UniProt P16234); assay: Inhibition of PDGFRalpha (unknown origin) using FAM-labeled peptide as substrate incubated for 10 mins followed by substrate addition by HTRF assay
[7] = target: Mast/stem cell growth factor receptor Kit (Homo sapiens, UniProt P10721); assay: Inhibition of c-KIT (unknown origin) using FAM-labeled peptide as substrate incubated for 10 mins followed by substrate addition by HTRF assay
[8] = target: Platelet-derived growth factor receptor beta (Homo sapiens, UniProt P09619); assay: Inhibition of PDGFRbeta (unknown origin) using FAM-labeled peptide as substrate incubated for 10 mins followed by substrate addition by HTRF assay
[9] = target: ALK tyrosine kinase receptor (Homo sapiens, UniProt Q9UM73); assay: Inhibition of ALK (unknown origin) using FAM-labeled peptide as substrate incubated for 10 mins followed by substrate addition by HTRF assay
HepG2 [10] = assay: Induction of apoptosis in human HepG2 cells assessed as late apoptotic cells at 0.5 uM after 48 hrs by Annexin V-FITC/PI staining based flow cytometry (reference value: 3.53%); assay type: functional
HepG2 [11] = assay: Induction of apoptosis in human HepG2 cells assessed as necrotic cells at 0.5 uM after 48 hrs by Annexin V-FITC/PI staining based flow cytometry (reference value: 1.81%); assay type: functional
HepG2 [12] = assay: Induction of apoptosis in human HepG2 cells assessed as viable cells at 0.5 uM after 48 hrs by Annexin V-FITC/PI staining based flow cytometry (reference value: 91.69%); assay type: functional; conditions: HepG2, 48 h, read-out: Activity
HepG2 [13] = assay: Induction of apoptosis in human HepG2 cells assessed as early apoptotic cells at 0.5 uM after 48 hrs by Annexin V-FITC/PI staining based flow cytometry (reference value: 2.97%); assay type: functional

Chain of Hepatocyte growth factor receptor (P08581 whole entry): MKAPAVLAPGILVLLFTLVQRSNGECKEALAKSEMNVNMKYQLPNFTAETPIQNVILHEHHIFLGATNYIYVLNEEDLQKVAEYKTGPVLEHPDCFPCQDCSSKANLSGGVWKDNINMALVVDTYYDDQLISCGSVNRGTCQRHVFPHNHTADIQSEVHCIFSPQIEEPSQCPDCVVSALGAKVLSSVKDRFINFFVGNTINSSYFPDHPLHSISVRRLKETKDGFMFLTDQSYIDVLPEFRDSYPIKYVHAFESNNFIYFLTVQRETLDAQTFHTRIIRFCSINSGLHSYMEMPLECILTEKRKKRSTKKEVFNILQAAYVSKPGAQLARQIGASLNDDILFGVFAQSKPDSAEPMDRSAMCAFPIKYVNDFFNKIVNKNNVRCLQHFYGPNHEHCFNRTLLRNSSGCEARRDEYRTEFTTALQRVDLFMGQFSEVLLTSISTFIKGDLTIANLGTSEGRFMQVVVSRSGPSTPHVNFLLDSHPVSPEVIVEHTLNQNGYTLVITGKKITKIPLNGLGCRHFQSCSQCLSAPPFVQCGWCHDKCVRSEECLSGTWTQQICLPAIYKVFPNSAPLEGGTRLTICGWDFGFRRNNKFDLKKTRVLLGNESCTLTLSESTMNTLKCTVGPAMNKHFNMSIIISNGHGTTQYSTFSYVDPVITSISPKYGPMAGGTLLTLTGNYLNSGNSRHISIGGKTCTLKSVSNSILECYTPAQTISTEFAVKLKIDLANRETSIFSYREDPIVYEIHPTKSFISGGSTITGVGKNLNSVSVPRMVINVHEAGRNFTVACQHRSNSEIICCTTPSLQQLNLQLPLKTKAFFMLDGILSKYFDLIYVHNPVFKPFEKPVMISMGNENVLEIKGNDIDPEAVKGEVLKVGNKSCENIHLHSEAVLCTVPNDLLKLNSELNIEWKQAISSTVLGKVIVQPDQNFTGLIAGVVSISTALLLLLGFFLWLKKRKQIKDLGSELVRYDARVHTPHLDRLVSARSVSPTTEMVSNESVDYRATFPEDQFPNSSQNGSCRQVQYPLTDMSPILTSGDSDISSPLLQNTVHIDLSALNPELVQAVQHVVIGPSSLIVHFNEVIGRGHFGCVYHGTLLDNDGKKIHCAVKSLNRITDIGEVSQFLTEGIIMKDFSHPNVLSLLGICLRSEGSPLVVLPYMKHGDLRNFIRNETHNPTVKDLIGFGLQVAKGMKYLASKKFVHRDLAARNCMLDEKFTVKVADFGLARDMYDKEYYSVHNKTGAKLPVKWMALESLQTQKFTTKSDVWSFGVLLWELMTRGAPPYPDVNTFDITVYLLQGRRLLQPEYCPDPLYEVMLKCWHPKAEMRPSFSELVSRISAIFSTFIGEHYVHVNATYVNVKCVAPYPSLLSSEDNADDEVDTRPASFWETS
Chain of Mast/stem cell growth factor receptor Kit (P10721 whole entry): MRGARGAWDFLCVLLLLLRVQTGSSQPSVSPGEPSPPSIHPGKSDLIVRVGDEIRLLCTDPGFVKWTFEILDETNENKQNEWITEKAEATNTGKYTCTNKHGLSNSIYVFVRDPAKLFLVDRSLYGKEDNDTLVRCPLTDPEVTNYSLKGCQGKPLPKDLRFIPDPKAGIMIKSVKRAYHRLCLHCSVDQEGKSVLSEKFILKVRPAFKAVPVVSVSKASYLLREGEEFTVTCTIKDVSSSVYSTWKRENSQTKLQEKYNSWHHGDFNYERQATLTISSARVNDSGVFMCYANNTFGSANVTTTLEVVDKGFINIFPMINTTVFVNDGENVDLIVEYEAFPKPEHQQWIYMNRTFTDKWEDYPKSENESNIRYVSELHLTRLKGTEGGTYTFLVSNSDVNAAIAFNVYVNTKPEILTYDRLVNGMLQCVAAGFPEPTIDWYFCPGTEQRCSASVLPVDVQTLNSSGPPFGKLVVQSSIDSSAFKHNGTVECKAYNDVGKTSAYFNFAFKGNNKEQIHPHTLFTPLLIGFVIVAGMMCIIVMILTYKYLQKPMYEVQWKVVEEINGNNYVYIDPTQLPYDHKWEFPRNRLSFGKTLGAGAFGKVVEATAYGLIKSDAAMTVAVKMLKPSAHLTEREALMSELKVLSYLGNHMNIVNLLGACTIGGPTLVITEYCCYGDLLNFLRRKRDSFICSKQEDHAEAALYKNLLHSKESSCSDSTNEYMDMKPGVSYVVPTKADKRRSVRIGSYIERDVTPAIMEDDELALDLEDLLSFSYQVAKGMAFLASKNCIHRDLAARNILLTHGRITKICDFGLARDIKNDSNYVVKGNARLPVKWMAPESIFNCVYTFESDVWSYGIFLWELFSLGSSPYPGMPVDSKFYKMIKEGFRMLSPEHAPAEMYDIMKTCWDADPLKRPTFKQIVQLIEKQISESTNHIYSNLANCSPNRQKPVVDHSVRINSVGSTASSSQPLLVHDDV
Chain of Vascular endothelial growth factor receptor 3 (P35916 whole entry): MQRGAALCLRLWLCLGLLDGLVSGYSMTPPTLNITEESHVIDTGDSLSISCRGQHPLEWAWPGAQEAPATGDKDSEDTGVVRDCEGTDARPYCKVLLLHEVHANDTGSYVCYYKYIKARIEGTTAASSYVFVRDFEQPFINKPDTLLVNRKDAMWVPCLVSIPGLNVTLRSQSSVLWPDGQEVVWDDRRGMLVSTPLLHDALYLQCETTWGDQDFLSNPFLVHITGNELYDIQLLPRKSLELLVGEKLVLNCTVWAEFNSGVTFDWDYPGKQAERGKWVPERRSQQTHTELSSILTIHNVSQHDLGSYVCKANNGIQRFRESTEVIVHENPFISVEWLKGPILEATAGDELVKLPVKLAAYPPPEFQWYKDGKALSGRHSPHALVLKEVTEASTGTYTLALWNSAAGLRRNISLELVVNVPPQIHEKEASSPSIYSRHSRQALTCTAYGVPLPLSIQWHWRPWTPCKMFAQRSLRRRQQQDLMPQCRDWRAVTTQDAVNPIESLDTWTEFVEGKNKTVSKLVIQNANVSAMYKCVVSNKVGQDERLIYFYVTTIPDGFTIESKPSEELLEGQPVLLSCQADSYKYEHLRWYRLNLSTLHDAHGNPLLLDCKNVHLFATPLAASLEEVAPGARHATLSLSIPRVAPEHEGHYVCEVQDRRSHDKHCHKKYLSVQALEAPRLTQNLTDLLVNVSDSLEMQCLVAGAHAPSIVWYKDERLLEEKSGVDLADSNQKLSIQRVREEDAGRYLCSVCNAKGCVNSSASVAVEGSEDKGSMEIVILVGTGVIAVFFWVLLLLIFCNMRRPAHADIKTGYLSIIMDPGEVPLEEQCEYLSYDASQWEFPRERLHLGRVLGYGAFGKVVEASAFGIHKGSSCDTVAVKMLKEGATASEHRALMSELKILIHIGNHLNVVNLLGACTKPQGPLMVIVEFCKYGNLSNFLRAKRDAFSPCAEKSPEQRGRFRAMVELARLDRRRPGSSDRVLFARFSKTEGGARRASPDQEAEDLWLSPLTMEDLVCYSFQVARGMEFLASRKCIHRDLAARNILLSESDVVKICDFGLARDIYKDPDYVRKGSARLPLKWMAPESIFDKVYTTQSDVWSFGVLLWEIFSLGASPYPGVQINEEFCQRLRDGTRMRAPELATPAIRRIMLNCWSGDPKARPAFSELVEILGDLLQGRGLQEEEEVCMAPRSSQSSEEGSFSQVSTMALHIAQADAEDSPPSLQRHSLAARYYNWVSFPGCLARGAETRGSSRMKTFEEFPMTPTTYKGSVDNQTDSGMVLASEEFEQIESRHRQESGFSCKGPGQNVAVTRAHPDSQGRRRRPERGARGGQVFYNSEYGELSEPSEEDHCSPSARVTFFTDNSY
Chain of Platelet-derived growth factor receptor alpha (P16234 whole entry): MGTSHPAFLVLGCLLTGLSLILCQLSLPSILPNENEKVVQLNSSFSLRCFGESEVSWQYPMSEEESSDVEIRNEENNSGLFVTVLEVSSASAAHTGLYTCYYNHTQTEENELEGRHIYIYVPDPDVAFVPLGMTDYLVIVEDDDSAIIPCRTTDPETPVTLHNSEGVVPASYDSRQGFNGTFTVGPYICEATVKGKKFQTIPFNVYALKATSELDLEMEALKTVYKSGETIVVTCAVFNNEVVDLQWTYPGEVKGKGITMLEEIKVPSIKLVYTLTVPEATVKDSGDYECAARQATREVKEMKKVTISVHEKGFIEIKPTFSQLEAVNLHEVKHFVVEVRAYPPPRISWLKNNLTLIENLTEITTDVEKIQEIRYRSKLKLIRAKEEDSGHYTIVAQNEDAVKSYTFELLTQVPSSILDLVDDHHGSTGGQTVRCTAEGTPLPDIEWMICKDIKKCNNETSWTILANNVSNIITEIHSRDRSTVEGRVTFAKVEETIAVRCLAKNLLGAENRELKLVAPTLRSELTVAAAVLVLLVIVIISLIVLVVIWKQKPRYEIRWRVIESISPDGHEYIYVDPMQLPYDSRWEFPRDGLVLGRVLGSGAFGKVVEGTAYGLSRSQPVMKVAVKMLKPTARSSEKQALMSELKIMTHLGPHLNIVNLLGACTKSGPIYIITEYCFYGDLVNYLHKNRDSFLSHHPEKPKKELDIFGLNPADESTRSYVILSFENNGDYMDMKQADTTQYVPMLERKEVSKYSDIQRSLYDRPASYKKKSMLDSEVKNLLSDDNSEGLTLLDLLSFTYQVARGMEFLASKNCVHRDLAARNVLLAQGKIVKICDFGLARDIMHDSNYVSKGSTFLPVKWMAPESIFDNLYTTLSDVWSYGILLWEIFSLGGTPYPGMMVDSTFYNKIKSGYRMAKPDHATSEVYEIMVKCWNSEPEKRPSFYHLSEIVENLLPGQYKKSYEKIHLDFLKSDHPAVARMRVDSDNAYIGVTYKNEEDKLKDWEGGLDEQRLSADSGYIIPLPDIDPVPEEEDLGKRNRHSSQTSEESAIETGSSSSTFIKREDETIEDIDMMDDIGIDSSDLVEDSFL

Compound | IC50 [1] [nM] | IC50 (A549) [µM] | IC50 (MCF7) [µM] | IC50 (HepG2 [2]) [µM] | also measured
COc1cc2c(Oc3ccc(NC(=O)c4cc5cccnc5n(-c5ccc(F)cc5)c4=O)cc3F)ccnc2cc1OCCCN1CCC(C)CC1 | 31.8 |  |  |  | 
COc1cc2c(Oc3ccc(NC(=O)c4cc5cccnc5n(-c5ccc(Br)cc5)c4=O)cc3F)ccnc2cc1OCCCN1CCOCC1 | 10.1 | 4.17 | 0.61 | 1.98 | 
COc1cc2c(Oc3ccc(NC(=O)c4cc5cccnc5n(-c5ccc(Cl)cc5)c4=O)cc3F)ccnc2cc1OCCCN1CCOCC1 |  | 4.23 | 3.21 | > 40 | 
COc1cc2c(Oc3ccc(NC(=O)c4cc5cccnc5n(-c5ccc(C(F)(F)F)cc5Cl)c4=O)cc3F)ccnc2cc1OCCCN1CCOCC1 |  | 4.19 | 9.41 | 4.17 | 
COc1ccc(-n2c(=O)c(C(=O)Nc3ccc(Oc4ccnc5cc(OCCCN6CCOCC6)c(OC)cc45)c(F)c3)cc3cccnc32)cc1 |  | 19.5 | 10.5 | 9.16 | 
COc1cc2c(Oc3ccc(NC(=O)c4cc5cccnc5n(-c5ccc(F)cc5)c4=O)cc3F)ccnc2cc1OCCCN1CCN(C)CC1 | 2.36 |  |  |  | IC50 [3]: 183 nM; IC50 [4]: 5.31 nM; IC50 [5]: > 10 µM; IC50 [6]: 4.35 nM; IC50 [7]: 10.1 nM; IC50 [8]: 19.5 nM; IC50 [9]: 200 nM
COc1cc2c(Oc3ccc(NC(=O)c4cc5cccnc5n(-c5ccc(Br)cc5F)c4=O)cc3F)ccnc2cc1OCCCN1CCOCC1 |  | > 40 | 9.75 | > 40 | 
COc1cc2c(Oc3ccc(NC(=O)c4cc5cccnc5n(-c5ccc(Br)cc5F)c4=O)cc3F)ccnc2cc1OCCCN1CCN(C)CC1 | 6.41 |  |  |  | 
COc1cc2c(Oc3ccc(NC(=O)C4(C(=O)Nc5ccc(F)cc5)CC4)cc3F)ccnc2cc1OCCCN1CCOCC1 [FORETINIB] |  |  |  |  | Activity (HepG2 [10]): 8.36%; Activity (HepG2 [11]): 0.64%; viability at 0.5 µM (HepG2 [12]): 72.5%; Activity (HepG2 [13]): 18.51%
COc1cc2c(Oc3ccc(NC(=O)c4cc5cccnc5n(-c5ccc(Br)cc5F)c4=O)cc3F)ccnc2cc1OCCCN1CCC(C)CC1 | 38.3 |  |  |  | 
COc1cc2c(Oc3ccc(NC(=O)c4cc5cccnc5n(-c5ccc(Br)cc5)c4=O)cc3F)ccnc2cc1OCCCN1CCCCC1 | 29.2 |  |  |  | 
COc1cc2c(Oc3ccc(NC(=O)c4cc5cccnc5n(-c5ccc(F)cc5)c4=O)cc3F)ccnc2cc1OCCCN1CCOCC1 | 7.97 | 2.41 | 1.78 | 0.76 | 
COc1cc2c(Oc3ccc(NC(=O)c4cc5cccnc5n(-c5ccccc5)c4=O)cc3F)ccnc2cc1OCCCN1CCOCC1 |  | 16.8 | > 40 | 11.6 | 
COc1cc2c(Oc3ccc(NC(=O)c4cc5cccnc5n(-c5ccc(F)cc5)c4=O)cc3F)ccnc2cc1OCCCN1CCCCC1 | 2.86 |  |  |  | 
COc1cc2c(Oc3ccc(NC(=O)c4cc5cccnc5n(-c5ccc(F)c(Cl)c5)c4=O)cc3F)ccnc2cc1OCCCN1CCOCC1 |  | > 40 | 1.12 | 9.68 | 

— ChEMBL document CHEMBL4265922, “Synthesis and antiproliferative activity of 6,7-disubstituted-4-phenoxyquinoline derivatives bearing the 1,8-naphthyridin-2-one moiety” (Eur J Med Chem, 2018)
